Series [1] in a line: Hygroscopicity of crystalline form A by dynamic vapor sorption (DVS). In kind it is physicochemical. The settings on record: 25° C. and 80% RH. As for the experimental part:
Instrument model: TA Instruments Q5000 SA dynamic moisture adsorption instrument.
Test conditions: 1 mg to 10 mg sample was weighed and placed in a DVS sample tray for testing.
The detailed DVS parameters were as follows: temperature: 25° C., balance: dm/dt=0.01%/min for 15.00 min, drying: 90 min at 0% RH, RH (%) test gradient: 10% RH (%), test gradient range: 0%-80%-0%.
The hygroscopicity evaluation is classified as follows:
Experimental material: TA Instruments Q5000 SA dynamic moisture adsorption instrument
Experimental method: 1 mg to 10 mg of sample was weighted and placed in a DVS sample tray for testing.

A short description of series [2]: Solid stability test of crystalline form A. To be noted: open, 10 days. In kind it is physicochemical. The text has this: […] Samples in duplicate were placed under each condition, and the samples for XRPD detection and melting points were placed separately. Samples placed under different conditions were sampled for XRPD detection at the planned test end point, and the test results were compared with the initial test results at Day 0.

Series [3] addresses thyroid hormone receptor β (THR β) (Homo sapiens, UniProt P10828). Description: In vitro enzyme activity test of thyroid receptor β (TR-FRET, binding of THRβ LBD with co-activating peptide SRC2-2). The series is classed as biochemical. As to the method:
Time-resolved fluorescence resonance energy transfer (TR-FRET) experimental method was used to evaluate the agonist activity in vitro of the compounds to be tested through the binding of thyroid hormone receptor β (THR β) with its co-activating peptide SRC2-2.
GST tag was fused to THR β ligand binding domain (THR β LBD), and its co-activating peptide SRC2-2 was biotinylated. The binding capacity of THR β LBD to SRC2-2 was determined by detecting the tightly bound Europium-labeled anti-GST antibody and Streptavidin labeled with D2 with TR-FRET.
1) the compounds to be tested were dissolved in DMSO to prepare a 30 mM stock solution that could be stored in a dryer at room temperature for three months. If it is stored for a long time, it will be placed in a refrigerator at −20° C.
The activity rate is calculated as follows: […]
Ratio valuepositive control: average value of the ratios of all positive control holes in the whole plate.
Ratio valuenegative control: average value of the ratios of all negative control holes in the whole plate.
The EC50 (half excited concentration) of the compound was obtained by using the following nonlinear fitting formula.
X: log value of compound concentration; Y: activity rate of compound.
In general terms: TR-FRET usually uses a lanthanide donor and a delayed reading to cut background.

Series [4] addresses T1, thyroid receptor β (THRβ) (Homo sapiens, UniProt P10828).
T1 construct: expressed in transfected cells; host or cells: HEK293T
T1 sequence (P10828 217-461 limits assumed): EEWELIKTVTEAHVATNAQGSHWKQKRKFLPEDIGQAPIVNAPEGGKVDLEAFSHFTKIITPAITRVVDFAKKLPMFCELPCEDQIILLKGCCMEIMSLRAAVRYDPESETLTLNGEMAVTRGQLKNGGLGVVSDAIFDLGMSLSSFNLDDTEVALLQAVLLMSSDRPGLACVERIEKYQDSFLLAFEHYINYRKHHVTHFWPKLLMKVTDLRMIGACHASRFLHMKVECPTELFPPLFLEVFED
Description: Cytological activity test of thyroid receptor β (luciferase reporter gene in HEK293T cells). The series is classed as cell-based. The settings on record: read-out: EC50 of THR β in vitro cell activity. The text has this:
In this study, the fluorescence reporter gene experiment method was used to evaluate the excitatory effects of the two compounds to be tested on THR β target.
PGL4.35 [luc2P/9XGAL4UAS/Hygro] contains nine GALA-UAS repeat sequences (upstream activation sequences). This sequence drives the transcription of luciferase reporter gene luc2P, in response to the binding of the fusion protein containing Gal4 DNA binding domain with the ligand binding domain of thyroid receptor β (THR β) in pBIND THRβ vector. Stimulation on THRβ by the test sample will lead to the increase of luminescence signal.
The positive compound was dissolved in DMSO to prepare a 5 mM stock solution, and then diluted to a 0.5 mM stock solution. All compounds were dissolved in DMSO and stored in a refrigerator at −20° C. […]
2) HEK293T cells were cultured according to ATCC standard, and the cells were tested in exponential growth period. […] The cells were collected and counted. […]
5) The Britelite plus detection reagent was placed at room temperature. […] Envision was used to detect the luminescence value.
6) Agonism percentage is calculated as follows:
[formula] • RLU: Resulting Luminescence • RLUpositive control: average value of luminescence of all positive control holes in the whole plate. • RLUnegative control: average value of luminescence of all negative control holes in the whole plate. […]

The nature of series [5]: Pharmacokinetic evaluation in rats (liver-blood ratio). The series is classed as in vivo, CD rats. As for the experimental part: To determine the pharmacokinetic parameters of the compound represented by formula (I) in rats.
The animals were given the compound at a dose of 5 mg/kg at a concentration of 0.5 mg/mL. Animals were cross-collected for plasma samples at 2, 6 and 10 h after administration. The drug concentration in the plasma samples was determined by LC-MS/MS method, and the kinetic parameters of the test drugs obtained were found in Table 25: […]

Where two headings read alike, the source gives them in different places.

Chain of thyroid hormone receptor β (THR β) (P19793 whole entry partner, other chains not shown, the tested form may be a part): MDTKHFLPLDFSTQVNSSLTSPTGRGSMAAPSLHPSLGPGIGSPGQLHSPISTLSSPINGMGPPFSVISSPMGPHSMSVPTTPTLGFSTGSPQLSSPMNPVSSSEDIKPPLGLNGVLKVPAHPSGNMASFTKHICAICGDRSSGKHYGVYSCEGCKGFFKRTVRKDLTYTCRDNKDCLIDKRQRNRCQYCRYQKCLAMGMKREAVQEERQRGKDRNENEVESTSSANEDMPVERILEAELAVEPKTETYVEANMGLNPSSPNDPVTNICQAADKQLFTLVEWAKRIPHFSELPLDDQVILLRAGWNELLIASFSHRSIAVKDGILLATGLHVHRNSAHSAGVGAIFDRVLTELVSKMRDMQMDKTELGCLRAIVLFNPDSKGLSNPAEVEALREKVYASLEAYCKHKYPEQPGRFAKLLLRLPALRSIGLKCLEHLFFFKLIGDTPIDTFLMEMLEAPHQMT

For the compound `C[C@@H]1CCc2c(Oc3c(Cl)cc(-n4nc(C#N)c(=O)[nH]c4=O)cc3Cl)ccc(=O)n21` [crystalline form A], the hygroscopicity classification entry in series [1] is “slight hygroscopicity”. The “hygroscopic weight gain ΔW” value in series [1] (DVS) was found to be 0.6%. Moreover, the “Crystalline form (XRPD) after storage” value in series [2] (25° C./65% RH), in series [2] (25° C./85% RH), in series [2] (40° C./75% RH) and in series [2] (50° C.) was “Crystalline form A” throughout.

As usually defined, the EC50 is the concentration giving half of the maximal effect. As for `C[C@@H]1CCc2c(Oc3c(Cl)cc(-n4nc(C#N)c(=O)[nH]c4=O)cc3Cl)ccc(=O)n21` [Compound represented by formula (I)], the EC50 in series [3] came to 46 nM; in series [4] it was 214 nM. For the same compound, the Kp at 2 h in series [5] (male, CD, liver/plasma, rat, PO, 5.0 mg/kg, 2 h, read-out: L/P concentration ratio) stood at 7.7. Besides, in series [5] (male, CD, liver/plasma, rat, PO, 5.0 mg/kg, 6 h, read-out: L/P concentration ratio), the Kp at 6 h is 22.1. For the same compound, the Kp at 10 h in series [5] (male, CD, liver/plasma, rat, PO, 5.0 mg/kg, 10 h, read-out: L/P concentration ratio) is 23.6. Besides, the concentration at 2 h amounted to 1180 ng/g in series [5] (male, CD, liver, rat, PO, 5.0 mg/kg, 2 h, read-out: Liver drug concentration L) and 153 ng/mL in series [5] (male, CD, plasma, rat, PO, 5.0 mg/kg, 2 h, read-out: Blood drug concentration P). Also, the concentration at 6 h in series [5] (male, CD, liver, rat, PO, 5.0 mg/kg, 6 h, read-out: Liver drug concentration L) was 746 ng/g; in series [5] (male, CD, plasma, rat, PO, 5.0 mg/kg, 6 h, read-out: Blood drug concentration P), 33.8 ng/mL. The concentration at 10 h in series [5] (male, CD, liver, rat, PO, 5.0 mg/kg, 10 h, read-out: Liver drug concentration L) stood at 238 ng/g; in series [5] (male, CD, plasma, rat, PO, 5.0 mg/kg, 10 h, read-out: Blood drug concentration P) it was 10.1 ng/mL. Further, the half-life in series [5] (male, CD, plasma, rat, PO, 5.0 mg/kg, read-out: T½ (converted)) was 222 min. In addition, the “liver targeting (conclusion)” value in series [5] (rat, PO, 5.0 mg/kg) is “Conclusion: The blood drug concentration of the compound represented by formula (I) in rats was relatively low, and the liver drug concentration was relatively high, so the compound represented by formula (I) has good liver targeting”. Further, the blood drug concentration result in series [5] (rats) is “low”. Moreover, in series [5] (rats), the liver drug concentration entry is recorded as “relatively high”. Further, the liver targeting entry in series [5] (rats) is on record as “good liver targeting properties”.

(Values after patent US20250353845A1, “THYROID HORMONE BETA RECEPTOR AGONIST, CRYSTAL FORM, PREPARATION METHOD AND USE” (KPC PHARMACEUTICALS, INC, priority 2022, published 2025).)
